# Results from patent US20240308976A1, “COMPOUNDS THAT MEDIATE PROTEIN DEGRADATION AND USES THEREOF” (Monte Rosa Therapeutics, Inc., priority 2021, published 2024).
# Key:
# CRBN-DDB1 = CRBN-DDB1 (Homo sapiens, UniProt Q96SW2); test: Compound binding to CRBN by HTRF assay; settings: CRBN-DDB1 2.5 nM, Cy5-Thalidomide 100 nM, 30 min at ambient temperature; read-out: HTRF Class (Cereblon binding, HTRF IC50)
# Procedure, shortened: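 Cy5-thalidomide (100 nM) displacement from His-tagged CRBN-DDB1 (2.5 nM) read by terbium-cryptate HTRF (665/620 nm), in 20 mM HEPES, 20 mM NaCl, 0.2 mM TCEP, 0.2 mM EDTA, 0.005% Tween20. Compounds tested as 10-point 1:3 series, 30 min at ambient temperature. Signal normalised to DMSO and lenalidomide controls; IC50 fitted, Ki by Cheng-Prusoff.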
# GSPT1 = biological target: T1, GSPT1 (Homo sapiens, UniProt P15170+Q96SW2); test: Immunofluorescence assay for activity to degrade GSPT1 in CAL-51 cells; format: cell-based; settings: 6 h treatment, read-out: IF Class (GSPT1 degradation, DC50)
# T1 construct: CAL-51 cells were purchased from DSMZ (cat. Number ACC302); host or cells: CAL-51
# Procedure, shortened: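 CAL-51 cells treated 6 h with compound (30 μM to 0.1 nM), fixed, immunostained for GSPT1 with DAPI and phalloidin counterstains, imaged by high-content microscopy. Mean per-cell GSPT1 intensity normalized to controls; DC50 by non-linear regression.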
# T1 sequence (P15170 whole entry): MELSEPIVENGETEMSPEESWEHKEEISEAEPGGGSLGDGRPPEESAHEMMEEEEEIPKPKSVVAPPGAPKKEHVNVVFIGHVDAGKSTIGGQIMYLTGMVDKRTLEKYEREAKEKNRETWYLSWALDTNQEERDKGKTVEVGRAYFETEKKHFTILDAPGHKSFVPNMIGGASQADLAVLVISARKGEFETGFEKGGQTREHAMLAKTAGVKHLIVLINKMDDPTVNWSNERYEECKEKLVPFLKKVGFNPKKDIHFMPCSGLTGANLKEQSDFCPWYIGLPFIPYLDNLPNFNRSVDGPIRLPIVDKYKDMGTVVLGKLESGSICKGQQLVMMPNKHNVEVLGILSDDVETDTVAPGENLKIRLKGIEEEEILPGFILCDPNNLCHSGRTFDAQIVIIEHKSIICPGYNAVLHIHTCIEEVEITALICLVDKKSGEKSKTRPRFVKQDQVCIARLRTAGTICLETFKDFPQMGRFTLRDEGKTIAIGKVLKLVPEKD
# T1 sequence (Q96SW2 whole entry): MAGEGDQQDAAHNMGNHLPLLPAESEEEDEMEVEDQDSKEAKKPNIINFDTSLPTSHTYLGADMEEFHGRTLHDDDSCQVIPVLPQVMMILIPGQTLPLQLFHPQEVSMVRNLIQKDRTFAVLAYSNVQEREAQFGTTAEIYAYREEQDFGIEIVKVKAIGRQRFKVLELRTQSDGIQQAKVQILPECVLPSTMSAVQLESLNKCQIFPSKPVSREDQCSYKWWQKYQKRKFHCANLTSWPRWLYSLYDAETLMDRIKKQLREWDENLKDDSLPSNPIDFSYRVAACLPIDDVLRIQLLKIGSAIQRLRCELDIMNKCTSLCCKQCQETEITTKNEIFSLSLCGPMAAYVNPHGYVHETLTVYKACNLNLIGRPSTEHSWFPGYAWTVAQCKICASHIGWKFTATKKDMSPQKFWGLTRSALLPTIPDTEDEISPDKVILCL
# T1 sequence (Q16531 2-1140 partner limits assumed): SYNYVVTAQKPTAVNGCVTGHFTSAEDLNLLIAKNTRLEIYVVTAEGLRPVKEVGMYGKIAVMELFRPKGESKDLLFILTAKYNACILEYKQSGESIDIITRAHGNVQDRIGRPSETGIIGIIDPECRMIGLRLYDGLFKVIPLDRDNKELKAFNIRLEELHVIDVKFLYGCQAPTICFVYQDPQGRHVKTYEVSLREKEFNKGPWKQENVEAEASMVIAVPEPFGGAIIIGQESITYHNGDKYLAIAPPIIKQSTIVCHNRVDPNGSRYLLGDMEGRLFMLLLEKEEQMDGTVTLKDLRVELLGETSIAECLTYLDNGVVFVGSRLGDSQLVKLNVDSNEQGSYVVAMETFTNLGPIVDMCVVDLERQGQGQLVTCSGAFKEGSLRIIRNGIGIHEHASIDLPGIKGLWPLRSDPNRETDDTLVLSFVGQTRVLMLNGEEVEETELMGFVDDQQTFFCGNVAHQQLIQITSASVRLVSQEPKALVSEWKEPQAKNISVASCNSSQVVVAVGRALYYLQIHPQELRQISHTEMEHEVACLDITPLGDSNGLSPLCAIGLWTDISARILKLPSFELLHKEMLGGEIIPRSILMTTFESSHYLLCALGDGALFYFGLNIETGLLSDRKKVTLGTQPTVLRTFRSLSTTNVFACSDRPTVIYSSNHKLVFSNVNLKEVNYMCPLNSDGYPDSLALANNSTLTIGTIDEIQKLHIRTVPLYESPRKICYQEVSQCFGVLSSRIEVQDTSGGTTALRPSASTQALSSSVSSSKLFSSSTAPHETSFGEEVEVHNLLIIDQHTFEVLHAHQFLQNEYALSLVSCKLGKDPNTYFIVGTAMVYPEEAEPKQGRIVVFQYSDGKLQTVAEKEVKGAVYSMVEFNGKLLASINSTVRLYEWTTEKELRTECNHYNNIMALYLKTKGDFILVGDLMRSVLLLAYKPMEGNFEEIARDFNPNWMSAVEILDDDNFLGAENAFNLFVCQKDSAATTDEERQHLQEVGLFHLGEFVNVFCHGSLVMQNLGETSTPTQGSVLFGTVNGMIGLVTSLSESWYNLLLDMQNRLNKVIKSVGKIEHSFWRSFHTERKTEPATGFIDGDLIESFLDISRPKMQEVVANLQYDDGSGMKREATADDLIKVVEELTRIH
# Chain of CRBN-DDB1 (Q96SW2 whole entry): as the sequence (Q96SW2 whole entry) above
# Chain of CRBN-DDB1 (Q16531 whole entry partner): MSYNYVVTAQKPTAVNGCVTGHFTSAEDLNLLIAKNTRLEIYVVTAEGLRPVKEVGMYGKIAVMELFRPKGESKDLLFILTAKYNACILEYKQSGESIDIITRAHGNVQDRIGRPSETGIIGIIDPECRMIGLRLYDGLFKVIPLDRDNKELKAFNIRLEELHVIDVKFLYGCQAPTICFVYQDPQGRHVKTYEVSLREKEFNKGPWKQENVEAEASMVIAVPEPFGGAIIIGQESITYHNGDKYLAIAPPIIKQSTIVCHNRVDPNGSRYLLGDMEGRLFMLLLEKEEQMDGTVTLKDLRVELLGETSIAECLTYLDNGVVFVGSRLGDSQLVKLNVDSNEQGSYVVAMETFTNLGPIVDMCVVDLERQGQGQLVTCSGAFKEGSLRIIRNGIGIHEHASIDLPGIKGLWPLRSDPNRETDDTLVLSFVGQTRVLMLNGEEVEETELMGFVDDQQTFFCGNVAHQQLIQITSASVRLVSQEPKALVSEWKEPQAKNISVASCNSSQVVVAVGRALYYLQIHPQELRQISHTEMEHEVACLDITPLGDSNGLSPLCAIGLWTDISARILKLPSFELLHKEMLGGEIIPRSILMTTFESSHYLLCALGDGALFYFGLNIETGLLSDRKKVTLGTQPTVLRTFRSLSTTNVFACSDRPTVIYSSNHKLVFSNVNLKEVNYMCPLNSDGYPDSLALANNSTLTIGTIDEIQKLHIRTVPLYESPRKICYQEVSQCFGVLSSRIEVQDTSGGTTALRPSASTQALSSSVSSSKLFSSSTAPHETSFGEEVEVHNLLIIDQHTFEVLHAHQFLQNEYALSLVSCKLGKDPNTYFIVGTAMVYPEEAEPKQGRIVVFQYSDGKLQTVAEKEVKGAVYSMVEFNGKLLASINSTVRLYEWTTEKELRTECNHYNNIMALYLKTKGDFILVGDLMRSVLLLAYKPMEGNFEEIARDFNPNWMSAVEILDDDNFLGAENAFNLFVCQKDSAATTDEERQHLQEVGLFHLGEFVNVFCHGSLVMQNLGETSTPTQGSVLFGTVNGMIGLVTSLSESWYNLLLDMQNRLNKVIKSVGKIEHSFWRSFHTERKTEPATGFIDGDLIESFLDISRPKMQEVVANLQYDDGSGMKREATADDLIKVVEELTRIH
SMILES,IC50 (CRBN-DDB1) [nM],DC50 (GSPT1) [nM]
"O=C1CCC(c2c(F)cc(N3CC(OC(=O)NC4CCOCC4)C3)cc2F)C(=O)N1 (centres unmarked) [Compound 94, 1-(4-(2,6-dioxopiperidin-3-yl)-3,5-difluorophenyl)azetidin-3-yl (tetrahydro-2H-pyran-4-yl)carbamate]",100 to 1000,> 300
"CC(C)(C)N1CC(NC(=O)OC2CN(c3cc(F)c(C4CCC(=O)NC4=O)c(F)c3)C2)C1 (centres unmarked) [Compound 126, 1-(4-(2,6-dioxopiperidin-3-yl)-3,5-difluorophenyl)azetidin-3-yl(1-(tert-butyl)azetidin-3-yl)carbamate]",≤ 100,> 300
"O=C1CCC(c2c(F)cc(N3CC(OC(=O)NCC4CCCCC4)C3)cc2F)C(=O)N1 (centres unmarked) [Compound 127, 1-(4-(2,6-dioxopiperidin-3-yl)-3,5-difluorophenyl)azetidin-3-yl(cyclohexylmethyl) carbamate]",100 to 1000,≤ 30
"O=C1CCC(c2c(F)cc(N3CC(OC(=O)N[C@H]4C[C@H](c5ccccc5)C4)C3)cc2F)C(=O)N1 (stereo partly drawn) [Compound 128, 1-(4-(2,6-dioxopiperidin-3-yl)-3,5-difluorophenyl)azetidin-3-yl((1R,3R)-3 phenylcyclobutyl) carbamate]",100 to 1000,≤ 30
"C[C@@H](NC(=O)OC1CN(c2cc(F)c(C3CCC(=O)NC3=O)c(F)c2)C1)C1CCCCC1 (stereo partly drawn) [Compound 129, 1-(4-(2,6-dioxopiperidin-3-yl)-3,5-difluorophenyl)azetidin-3-yl ((R)-1-cyclohexylethyl)carbamate]",≤ 100,30 to 300
"CCCCNC(=O)OC1CN(c2cc(F)c(C3CCC(=O)NC3=O)c(F)c2)C1 (centres unmarked) [Compound 131, 1-(4-(2,6-dioxopiperidin-3-yl)-3,5-difluorophenyl)azetidin-3-yl butylcarbamate]",100 to 1000,30 to 300

# Continued, values first:
IC50 (CRBN-DDB1) [nM],DC50 (GSPT1) [nM],SMILES
100 to 1000,> 300,"O=C1CCC(c2c(F)cc(N3CC(OC(=O)NC4COC4)C3)cc2F)C(=O)N1 (centres unmarked) [Compound 95, 1-(4-(2,6-dioxopiperidin-3-yl)-3,5-difluorophenyl)azetidin-3-yl oxetan-3-ylcarbamate]"
100 to 1000,30 to 300,"O=C1CCC(c2c(F)cc(N3CC(OC(=O)NCC4CC(F)(F)C4)C3)cc2F)C(=O)N1 (centres unmarked) [Compound 96, 1-(4-(2,6-dioxopiperidin-3-yl)-3,5-difluorophenyl)azetidin-3-yl ((3,3-difluorocyclobutyl)methyl)carbamate]"
≤ 100,≤ 30,"CC1(C)CC(NC(=O)OC2CN(c3cc(F)c(C4CCC(=O)NC4=O)c(F)c3)C2)C1 (centres unmarked) [Compound 97, 1-(4-(2,6-dioxopiperidin-3-yl)-3,5-difluorophenyl)azetidin-3-yl (3,3-dimethylcyclobutyl)carbamate]"
≤ 100,≤ 30,"C[C@@H](NC(=O)OC1CN(c2cc(F)c(C3CCC(=O)NC3=O)c(F)c2)C1)c1ccccc1 (stereo partly drawn) [Compound 123, 1-(4-(2,6-dioxopiperidin-3-yl)-3,5-difluorophenyl)azetidin-3-yl((R)-1-phenylethyl)carbamate]"
≤ 100,≤ 30,"C[C@H]1CC[C@H](NC(=O)OC2CN(c3cc(F)c(C4CCC(=O)NC4=O)c(F)c3)C2)CC1 (stereo partly drawn) [Compound 124, 1-(4-(2,6-dioxopiperidin-3-yl)-3,5-difluorophenyl)azetidin-3-yl((1R,4R)-4-methylcyclohexyl) carbamate]"
100 to 1000,≤ 30,"CC(C)CCNC(=O)OC1CN(c2cc(F)c(C3CCC(=O)NC3=O)c(F)c2)C1 (centres unmarked) [Compound 125, 1-(4-(2,6-dioxopiperidin-3-yl)-3,5-difluorophenyl)azetidin-3-yl isopentylcarbamate]"
100 to 1000,> 300,"C[C@H](NC(=O)OC1CN(c2cc(F)c(C3CCC(=O)NC3=O)c(F)c2)C1)c1ccccc1 (stereo partly drawn) [Compound 130, 1-(4-(2,6-dioxopiperidin-3-yl)-3,5-difluorophenyl)azetidin-3-yl((S)-1-phenylethyl) carbamate]"
